{"source": "patent US8158850B2", "about": "“Method to enhance yield and purity of hybrid crops” (priority 2007, dated 2012)", "format_in_all_cases": "in vivo, corn (Zea mays)", "key": {"[1]": {"system": "LH198DMSRR2 control (CMS germplasm with glyphosate tolerance)", "experiment": "Percent anther extrusion (AE %) at silk emergence after glyphosate treatment, field split plot test", "description": "(§1) Corn plants transformed with the DNA construct are produced and unique events that have the desired glyphosate tolerance phenotype are selected by treatment with glyphosate a various growth stages and at various rates of glyphosate. Optimal tassel and anther sensitivity to glyphosate can be determined by treatment with an effective dose of glyphosate during corn plant growth and then measuring the pollen shed or anther extrusion. Rapidly maturing corn inbred lines may have early tassel development and glyphosate treatments and rates can be adjusted as needed to produce male sterility in these inbred lines. Transgenic events for the glyphosate hybrid system were designated as event GHS1, GHS2 and GHS3, and selected by various glyphosate treatments to determine the rates and timing of glyphosate that provide the desired level of male sterility as measured by percent anther extrusion. Glyphosate was applied to a field containing the events using the following parameters: • Nozzle: Tee Jet Air Induction (AI) 110015-VS broadcast (green plus green adaptor) spaced on 30″ centers • GPA: 10-12 gallons per acre (GPA) • PSI: 30-35 pounds per square inch • Speed: 2-2.5 MPH • Nozzle Height: 16-18″ above “cup” of the whorl • Useful Conversions:\n(§2) • Roundup Ultra®=3 lb acid equivalent (ae)/gal or 32 oz=0.75 lb ae/[…] • Roundup WeatherMax®—22 oz/acre=0.75 lb ae/acre • Nozzle calibration: Determine GPM (gallon per minute) output—Select nozzles and set PSI as specified above. Insure screens are all the same style and size. Collect output (30 sec minimum) of every nozzle at engine operating RPM equivalent to field conditions. Replicate 3 times for consistency and replace any nozzle with greater than +5% variation compared to other nozzles. Repeat until all nozzles are consistent. • Tractor speed—Determine sprayer speed in mph at above spray RPM. Measure off known distance (i.e. 100′) and measure 3 times for consistency. • Calibration of application equipment—The following formula was used to calculate spray output in GPA: GPA=5940×GPM (per nozzle), MPH×W; wherein W=Nozzle spacing (in inches) for broadcast spraying.\n(§3) Transgenic events GHS1, GHS2, and GHS3 were treated with one or two applications of glyphosate (Roundup WeatherMax®) over the corn development stages V8-V12 (vegetative 8 leaf—vegetative 12 leaf). These development stages also correlate with pollen development in most inbred corn varieties. In this example, the transgenic events are in an LH198 germplasm crossed to LH287. The fertility score is a measure of the percent risk of anther extrusion (AE) observed at the time of silk emergence from the corn ear. The three events and a LH198DMSRR2 control (CMS germplasm with glyphosate tolerance) were treated with six glyphosate treatments (Table 4). The glyphosate treatments are single applications of 0.75 lb ae/ac at V8 stage (Trt 1), 0.75 lb ae/ac at V10 stage (Trt 2) and 0.54 lb ae/ac at V12 stage (Trt 3), and double applications of 0.75 lb ae/ac at V8 followed by 0.54 lb ae/ac at V12 (Trt 4), 0.75 lb ae/ac at V10 followed by 0.54 lb ae/ac at V12 (Trt 5), and 0.75 lb ae/ac at V8 followed by 0.75 lb ae/ac at V10 (Trt 6). The test was set up as a split plot design with 2 row plots and the glyphosate treatments applied in strips over all of the replications. FIG. 1 illustrates AE % as averaged across all spray treatments across each test plot and event."}, "[2]": {"system": "transgenic corn event GHS1 (LH198 germplasm crossed to LH287)", "experiment": "Percent anther extrusion (AE %) at silk emergence after glyphosate treatment, field split plot test", "settings": "Event GHS-1", "description": "as §1, §2, §3"}, "[3]": {"system": "transgenic corn event GHS3 (LH198 germplasm crossed to LH287)", "experiment": "Percent anther extrusion (AE %) at silk emergence after glyphosate treatment, field split plot test", "settings": "Event GHS-3", "description": "as §1, §2, §3"}, "[4]": {"system": "transgenic corn event GHS2 (LH198 germplasm crossed to LH287)", "experiment": "Percent anther extrusion (AE %) at silk emergence after glyphosate treatment, field split plot test", "settings": "Event GHS-2", "description": "as §1, §2, §3"}, "[5]": {"system": "hybrid seed production field, GHS1 or GHS2 female parent with MON88017 or nk603 male parent", "experiment": "Yield of the hybrid seed harvested from female rows of glyphosate-treated GHS fields", "settings": "for average yield of hybrid seed: GHS1 or GHS2 female, glyphosate V8 and V10 at 22 oz/ac, CMS-nk603 comparator yield 29.05 kg; for Average Wt (kg), yield of the hybrid seed: glyphosate treated V8-V10; for Total wt (KG), yield of the hybrid seed: glyphosate treated V8-V10 (22 oz/ac), seed harvested from female rows", "procedure": "The yield of hybrid seed is important for maintaining profitability in hybrid seed production systems. […] GHS1 and GHS2 are used as the female parent in a hybrid seed production field with MON88017 or nk603 as the male parent. The GHS fields were treated with glyphosate (V8 and V10 at 22 oz/ac) and the seed harvested from the female rows. […] The average yield is 29.72 kilograms (kg) and 33.39 kg, respectively compared to the CMS-nk603 yield of 29.05 kg."}, "[6]": {"settings": "Trt 4: 0.75 lb ae/ac at V8 followed by 0.54 lb ae/ac at V12"}, "[7]": {"settings": "Trt 5: 0.75 lb ae/ac at V10 followed by 0.54 lb ae/ac at V12"}, "[8]": {"settings": "Trt 6: 0.75 lb ae/ac at V8 followed by 0.75 lb ae/ac at V10"}}, "note": "Where “and” joins values, the source holds several entries; their conditions need not be identical. Identical values can stand only once."}
{"compound": "O=C(O)CNCP(=O)(O)O", "note": "[glyphosate, n-phosphonomethylglycine]", "values": [{"measurement": "AE (%)", "setting": "[1]; Trt 1: 0.75 lb ae/ac at V8", "result": 0.1, "unit": "%"}, {"measurement": "AE (%)", "setting": "[1]; Trt 2: 0.75 lb ae/ac at V10", "result": 0.1, "unit": "%"}, {"measurement": "AE (%)", "setting": "[1]; Trt 3: 0.54 lb ae/ac at V12", "result": 0.1, "unit": "%"}, {"measurement": "AE (%)", "setting": "[1]; [6]", "result": "~0.3", "unit": "%"}, {"measurement": "AE (%)", "setting": "[1]; [7]", "result": "~0.3", "unit": "%"}, {"measurement": "AE (%)", "setting": "[1]; [8]", "result": 0.0, "unit": "%"}, {"measurement": "AE (%)", "setting": "[2]; Trt 2: 0.75 lb ae/ac at V10", "result": 0.0, "unit": "%"}, {"measurement": "AE (%)", "setting": "[2]; Trt 3: 0.54 lb ae/ac at V12", "result": "~12.1", "unit": "%"}, {"measurement": "AE (%)", "setting": "[2]; [6]", "result": 0.0, "unit": "%"}, {"measurement": "AE (%)", "setting": "[2]; [7]", "result": 0.0, "unit": "%"}, {"measurement": "AE (%)", "setting": "[2]; [8]", "result": 0.0, "unit": "%"}, {"measurement": "AE (%)", "setting": "[3]; Trt 1: 0.75 lb ae/ac at V8", "result": "~5.9", "unit": "%"}, {"measurement": "AE (%)", "setting": "[3]; Trt 2: 0.75 lb ae/ac at V10", "result": 0.1, "unit": "%"}, {"measurement": "AE (%)", "setting": "[3]; [6]", "result": 0.0, "unit": "%"}, {"measurement": "AE (%)", "setting": "[3]; [7]", "result": 0.0, "unit": "%"}, {"measurement": "AE (%)", "setting": "[3]; [8]", "result": 0.0, "unit": "%"}, {"measurement": "AE (%)", "setting": "[4]; Trt 1: 0.75 lb ae/ac at V8", "result": 0.4, "unit": "%"}, {"measurement": "AE (%)", "setting": "[4]; Trt 2: 0.75 lb ae/ac at V10", "result": 0.0, "unit": "%"}, {"measurement": "AE (%)", "setting": "[4]; Trt 3: 0.54 lb ae/ac at V12", "result": "~3.0", "unit": "%"}, {"measurement": "AE (%)", "setting": "[4]; [6]", "result": 0.0, "unit": "%"}, {"measurement": "AE (%)", "setting": "[4]; [7]", "result": 0.0, "unit": "%"}, {"measurement": "AE (%)", "setting": "[4]; [8]", "result": 0.0, "unit": "%"}, {"measurement": "average yield of hybrid seed", "setting": "[5]; MON88017 male", "result": 29.72, "unit": "kg"}, {"measurement": "average yield of hybrid seed", "setting": "[5]; nk603 male", "result": 33.39, "unit": "kg"}, {"measurement": "Average Wt (kg), yield of the hybrid seed", "setting": "[5]; female GHS1, average over MON88017 and NK603 male parents", "result": 29.72, "unit": "kg"}, {"measurement": "Total wt (KG), yield of the hybrid seed", "setting": "[5]; female GHS1, male MON88017", "result": "25.9 kg and 31.5 kg"}, {"measurement": "Total wt (KG), yield of the hybrid seed", "setting": "[5]; female GHS1, male NK603", "result": "32.16 kg and 29.35 kg"}, {"measurement": "Average Wt (kg), yield of the hybrid seed", "setting": "[5]; female GHS2, average over MON88017 and NK603 male parents", "result": 33.39, "unit": "kg"}, {"measurement": "Total wt (KG), yield of the hybrid seed", "setting": "[5]; female GHS2, male MON88017", "result": "27.5 kg and 35.74 kg"}, {"measurement": "Total wt (KG), yield of the hybrid seed", "setting": "[5]; female GHS2, male NK603", "result": "38.67 kg and 31.66 kg"}]}
